Laboratory results: patent US20100249419A1, “UTILIZATION OF NOVEL COMPOUNDS WITH AMYLOID AFFINITY AND METHOD OF PRODUCING THE SAME” (NIHON MEDI-PHYSICS CO., LTD., priority 2007, published 2010)

Tests used:
β2-microglobulin amyloid = molecular target: T1, β2-microglobulin amyloid (Homo sapiens, UniProt P61769); experiment: In vitro binding of labeled compound to β2-m-amyloid (glass fiber filter); conditions: β2-m-amyloid 0.8 μg/mL, 22° C., 3 hours
T1 construct: purchased Oriental Yeast Co., ltd
Method: β2-microglobulin with cross -sheet structure was prepared by the following procedures (5) and (6) which was the method described in the known literature (Ohhashi, Y. et al., Journal of Biological Chemistry. 280, p. 32843-32848 (2005)) to which a little modification was made. […]
(§1) (8) A solution of Compound 1 which was synthesized by the method above in Example 3 was prepared (radioactivity of 500 MBq/mL), and diluted with a 0.1% bovine serum albumin-containing phosphate buffer (pH 7.4) to prepare a solution of 1.2-112.9 pM in terms of the total amount of 2-[4′-(2″-hydroxyethoxy)phenyl]-6-iodoimidazo[1,2-a]pyridine. […]
(§2) (11) The glass fiber filter used for the filtration of the mixture was washed with a 0.1% bovine serum albumin-containing phosphate buffer (0.2 mL×5), and radioactivity of the glass fiber filter was measured with an autowell gamma system (manufactured by Aloka, Type: ARC-7001).
(12) From the measurement results of (11), relation between the amount of Compound 1 binding to amyloid and addition amount of amyloid was evaluated. For a non-specific binding, it was determined from a sample in which no amyloid suspension was added above in (9) (Example 36). […]

insulin amyloid = molecular target: T2, insulin amyloid (Homo sapiens, UniProt P01308); experiment: In vitro binding of labeled compound to insulin amyloid (glass fiber filter); conditions: insulin amyloid 0.8 μg/mL, 22° C., 3 hours
T2 construct: 5 mg of insulin (manufactured by Sigma Aldrich Japan); purchased Sigma Aldrich Japan
T2 sequence (P01308 25-54 limits assumed): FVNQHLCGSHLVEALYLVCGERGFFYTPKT
T2 sequence (P01308 90-110 limits assumed): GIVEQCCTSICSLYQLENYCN
Method: Insulin with cross -sheet structure was prepared by the following procedures (2) and (3) which was the method described in the known literature (Burke, M. J. et al., Biochemistry. 11, p. 2435-2439 (1972)) to which a little modification was made.
(2) 5 mg of insulin (manufactured by Sigma Aldrich Japan) was dissolved in 1 mL of deionized water which was adjusted to pH 2 with hydrochloric acid, and the solution was heated at 90° C. for 10 minutes, and then quickly cooled in dry ice/ethanol.
(3) A sample solution of (2) was heated at 90° C. for 5 minutes, and then quickly cooled in dry ice/ethanol. […]
as §1, §2
(12) From the measurement results of (11), relation between the amount of Compound 1 binding to amyloid and addition amount of amyloid was evaluated. […]

T1 sequence (P61769 21-119): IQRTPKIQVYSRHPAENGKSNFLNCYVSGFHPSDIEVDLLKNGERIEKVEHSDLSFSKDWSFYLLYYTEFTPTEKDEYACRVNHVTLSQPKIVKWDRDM

Row | Substance | Radioactivity of the glass fiber filter versus amyloid non-added group (β2-microglobulin amyloid) | Radioactivity of the glass fiber filter versus amyloid non-added group (insulin amyloid)
1 | 2-[4′-(3″-hydroxypropoxy)phenyl]-6-[^123I]iodoimidazo[1,2-a]pyridine [Compound 6] | all high compared to the group without amyloid suspension | all high compared to the group without amyloid suspension
2 | 2-[4′-(2″-hydroxyethoxy)phenyl]-6-[^123I]iodoimidazo[1,2-a]pyridine [Compound 1] | all high compared to the group without amyloid suspension | all high compared to the group without amyloid suspension
